What was measured:
[1] = system: isolated cardiac mitochondria; assay: Cardiac mitochondrial phospholipid fatty acid composition by gas chromatography; type: in vivo, male Wistar rats; settings: Series 1, 8 weeks diet, mean ± SEM; for Mitochondrial phospholipid C16:0: n = 7-8/group; for Mitochondrial phospholipid C20:3n6 / Mitochondrial phospholipid C20:5n3: BQL in control; for Mitochondrial phospholipid C22:6n3: DHA; for Mitochondrial phospholipid C20:5n3: EPA; for Mitochondrial phospholipid C20:4n6: arachidonic acid (ARA)
Method: (§1) Experimental Design: The animal protocol was conducted according to the Guideline for the Care and Use of Laboratory Animals (NIH publication 85-23) and was approved by the University of Maryland School of Medicine Institutional Animal Care and Use Committee. Investigators were blinded to treatment when measurements were performed. The animals were maintained on a reverse 12-h light-dark cycle and all procedures were performed in the fed state between 3 and 6 h from the start of the dark phase. Two series of experiments were performed. In the initial studies (Series 1) male Wistar rats weighing 190-200 g were fed a standard low fat diet (CTRL) or modified standard diet containing DHA or EPA at 2.5% of total caloric intake, which corresponds to a human intake of approximately 5.5 g/day (calculated assuming an energy intake of 2000 kcal/day and 9 kcal/g of fat). The rats were maintained on the diet for 8 weeks. Following dietary treatment, rats were anesthetized with isoflurane, blood was drawn, and the heart was harvested for biochemical analysis and mitochondrial isolation. Plasma from these animals was analyzed for free fatty acids and triglyceride levels, and cardiac mitochondria for respiration, Ca^2+ retention capacity (an index of MPTP opening), VDAC and cyclophilin D, and membrane phospholipid composition as described below. Following completion of Series 1, a second series of animal studies (Series 2) were performed to assess mitochondrial swelling using a light scattering assay, and the effects of different respiratory substrates on Ca^2+ retention capacity in mitochondria from control and DHA supplemented rats. Animals were treated for 10 weeks and were fed either CTRL or DHA (2.5% of total caloric intake).
(§2) Mitochondrial Preparation: Mitochondria were isolated as previously described^228. LV tissue (400-500 mg) was minced and homogenized in 1:10 cold modified Chappel-Perry buffer (100 mM KCl, 50 mM MOPS, 5 mM MgSO4, 1 mM ATP, 1 mM EGTA, 2 mg/ml BSA), and the homogenates were centrifuged at 500×g. Subsequent centrifugation allowed for separation and purification of the subsarcolemmal mitochondria. The concentration of mitochondrial protein was measured by the Lowry method using bovine serum albumin as a standard.
(§3) Membrane Lipid Composition: Cardiac phospholipid fatty acid composition was assessed in a subset of animals from Series 1 (n=7-9/group) on isolated cardiac mitochondria homogenates by gas chromatography with a flame ionization detector according to a modification of the transesterification method as previously described^228. CL composition was assessed on isolated cardiac mitochondria by electrospray ionization mass spectrometry using 1,1′,2,2′-tetramyristoyl CL as an internal standard as previously described (n=9/group)^228,229, 230.

[2] = system: isolated cardiac mitochondria; assay: Cardiac mitochondrial cardiolipin (CL) content and composition by electrospray ionization mass spectrometry; type: in vivo, male Wistar rats; settings: for total CL content: Series 1, 8 weeks diet, CTRL 10.7±0.8, DHA vs CTRL p<0.08
Method: as §1, with “Following completion of Series 1, a second series of animal studies (Series 2) were performed to assess mitochondrial swelling using a light scattering assay, and the effects of different respiratory substrates on Ca^2+ retention capacity in mitochondria from control and DHA supplemented rats. Animals were treated for 10 weeks and were fed either CTRL or DHA (2.5% of total caloric intake).” left out
Mitochondrial Preparation: Mitochondria were isolated as previously described^228. […] The concentration of mitochondrial protein was measured by the Lowry method using bovine serum albumin as a standard.
as §3

[3] = system: isolated cardiac mitochondria; assay: Mitochondrial respiration (oxygen consumption, Clark-type electrode); type: in vivo, male Wistar rats; settings: for P:O: measurements without oligomycin; for RCR: ratio of State 3 to State 4 rate with oligomycin; for decrease of state 4 respiration / increase of RCR: pyruvate+malate, vs control, p<0.05; for decrease of state 4 respiration: absence and presence of oligomycin
Method: as §1, §2
Mitochondrial respiration: Mitochondrial oxygen consumption was measured using a Clark-type oxygen electrode (Qubit Systems, Ontario, Canada). Mitochondria (0.25 mg protein) were suspended in 0.5 ml solution consisting of 100 mM KCl, 50 mM MOPS, 5 mM KH2PO4, 1 mM EGTA, and 0.5 mg fatty acid-free bovine serum albumin, at pH 7.4 and 37° C. State 3 (ADP-stimulated) and state 4 (non-phosphorylating) respiration were measured with glutamate+malate (10 and 5 mM, respectively), pyruvate+malate (10 and 5 mM, respectively) and palmitoylcarnitine+malate (40 μM and 5 mM, respectively) to assess respiration through complex I-IV, while succinate+rotenone (10 mM and 7.5 μM, respectively), were used to assess respiration through complex II-IV of the ETC exclusively. State 4 respiration was also measured in the presence of oligomycin to inhibit the mitochondrial ATP synthase.

[4] = system: mitochondrial permeability transition pore (MPTP); assay: Ca2+ retention capacity (index of MPTP opening) in mitochondria from diet-treated rats, Series 1; type: in vivo, male Wistar rats
Method: as §1, §2

[5] = system: VDAC1; assay: Western blot of isolated mitochondria, densitometry; type: in vivo, male Wistar rats; settings: CTRL 1.00 ± 0.13
Method: (§4) Metabolic and Biochemical Parameters: Free fatty acids and triglycerides were assessed in the plasma using commercially available kits (Wako, Richmond, Va.). Mitochondrial proteins were separated by electrophoresis in 4-12% NuPage gels, transferred onto a nitrocellulose membrane, and incubated with specific antibodies to cyclophilin D and voltage-dependent anion channel (VDAC) (1:10,000 and 1:5000, respectively, both from Mitosciences, Eugene, Oreg.). Fluorescence-conjugated secondary antibodies (IRDye 800, 1:10,000; LI-COR Bioscience) were used for incubation before the membranes were scanned with Odyssey® infrared imaging system (LI-COR Bioscience). The digitized image was analyzed with Odyssey® software.

[6] = system: VDAC2; assay: as above; type: in vivo, male Wistar rats; settings: CTRL 1.00 ± 0.15
Method: as §4

[7] = system: cyclophilin D; assay: as above; type: in vivo, male Wistar rats; settings: CTRL 1.00 ± 0.08
Method: as §4

[8] = Plasma free fatty acids and triglycerides after dietary supplementation (Series 1); type: in vivo, male Wistar rats; settings: 2.5% of caloric intake, 8 weeks, FIG. 7
Method: as §1, with “Following dietary treatment, rats were anesthetized with isoflurane, blood was drawn, and the heart was harvested for biochemical analysis and mitochondrial isolation.” left out, “Following completion of Series 1, a second series of animal studies (Series 2) were performed to assess mitochondrial swelling using a light scattering assay, and the effects of different respiratory substrates on Ca^2+ retention capacity in mitochondria from control and DHA supplemented rats. Animals were treated for 10 weeks and were fed either CTRL or DHA (2.5% of total caloric intake).” left out
Metabolic and Biochemical Parameters: Free fatty acids and triglycerides were assessed in the plasma using commercially available kits (Wako, Richmond, Va.). […] The digitized image was analyzed with Odyssey® software.

[9] = target: T1, tumor necrosis factor (Homo sapiens, UniProt P01375); settings: direct cytokine blockade; cited from earlier work
T1 construct: host or cells: heart-failure patients

[10] = glutamate + malate, without CsA, CTRL 83.0±8.7
[11] = mitochondria of diet group with addition of 100 nM CsA

T1 sequence (P01375 77-233 limits assumed): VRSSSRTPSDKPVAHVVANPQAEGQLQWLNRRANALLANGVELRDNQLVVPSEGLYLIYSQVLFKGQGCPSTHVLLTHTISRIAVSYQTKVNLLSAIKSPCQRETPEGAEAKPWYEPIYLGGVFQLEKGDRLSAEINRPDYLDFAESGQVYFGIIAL

CC/C=C\C/C=C\C/C=C\C/C=C\C/C=C\C/C=C\CCC(=O)O [DHA, docosahexaenoic acid]
Mitochondrial phospholipid C18:0 [1]: 18.9 ± 0.5 molar percent of total phospholipid fatty acid
Mitochondrial phospholipid C18:1n7 [1]: 3.7 ± 0.2 molar percent of total phospholipid fatty acid
Mitochondrial phospholipid C18:1n9 [1]: 13.0 ± 1.0 molar percent of total phospholipid fatty acid
Mitochondrial phospholipid C18:2n6 [1]: 23.1 ± 1.0 molar percent of total phospholipid fatty acid
Mitochondrial phospholipid Total ω-3 PUFA [1]: 19.2 ± 0.5 molar percent of total phospholipid fatty acid
Mitochondrial phospholipid C16:0 [1]: 13.3 ± 0.5 molar percent of total phospholipid fatty acid
Mitochondrial phospholipid C20:3n6 [1]: 1.6 ± 0.2 molar percent of total phospholipid fatty acid
Mitochondrial phospholipid C22:6n3 [1]: 14.8 ± 0.6 molar percent of total phospholipid fatty acid
Mitochondrial phospholipid C20:5n3 [1]: 4.4 ± 0.3 molar percent of total phospholipid fatty acid
Mitochondrial phospholipid C20:4n6 [1]: 5.7 ± 0.2 molar percent of total phospholipid fatty acid
total CL content [2]: 13.2±0.8 nmols/mg mito prot
State 4 (+ oligomycin) respiration ([3]; Glutamate + Malate): 17.2 ± 2.0 ng atoms O · mg^−1 · min^−1
State 4 (− oligomycin) respiration ([3]; Glutamate + Malate): 35.3 ± 2.9 ng atoms O · mg^−1 · min^−1
State 3 respiration ([3]; Glutamate + Malate, mean ± SEM): 115.2 ± 16.2 ng atoms O · mg^−1 · min^−1
P:O ([3]; Glutamate + Malate): 2.37 ± 0.18
RCR ([3]; Glutamate + Malate): 7.0 ± 0.9
State 3 respiration ([3]; Palmityl-carnitine + Malate): 265.7 ± 34.4 ng atoms O · mg^−1 · min^−1
State 4 (+ oligomycin) respiration ([3]; Palmityl-carnitine + Malate): 24.9 ± 2.6 ng atoms O · mg^−1 · min^−1
State 4 (− oligomycin) respiration ([3]; Palmityl-carnitine + Malate): 42.6 ± 1.9 ng atoms O · mg^−1 · min^−1
P:O ([3]; Palmityl-carnitine + Malate): 2.50 ± 0.12
RCR ([3]; Palmityl-carnitine + Malate): 11.4 ± 1.8
State 3 respiration ([3]; Pyruvate + Malate): 240.4 ± 28.7 ng atoms O · mg^−1 · min^−1
State 4 (+ oligomycin) respiration ([3]; Pyruvate + Malate): 34.8 ± 4.2 ng atoms O · mg^−1 · min^−1
State 4 (− oligomycin) respiration ([3]; Pyruvate + Malate): 54.0 ± 3.2 ng atoms O · mg^−1 · min^−1
P:O ([3]; Pyruvate + Malate): 2.48 ± 0.09
RCR ([3]; Pyruvate + Malate): 7.7 ± 1.0
State 3 respiration ([3]; Succinate + Rotenone): 325.2 ± 19.6 ng atoms O · mg^−1 · min^−1
State 4 (+ oligomycin) respiration ([3]; Succinate + Rotenone): 84.7 ± 10.1 ng atoms O · mg^−1 · min^−1
State 4 (− oligomycin) respiration ([3]; Succinate + Rotenone): 99.3 ± 7.0 ng atoms O · mg^−1 · min^−1
P:O ([3]; Succinate + Rotenone): 1.48 ± 0.06
RCR ([3]; Succinate + Rotenone): 4.1 ± 0.4
decrease of state 4 respiration [3]: 30%
increase of RCR [3]: 70%
Ca2+ required to elicit MPTP [4, 10]: 134.9±11.4 nmol Ca^2+/mg mito prot
Ca2+ required to elicit MPTP [4, 11]: 147.0±17.3 nmol Ca^2+/mg mito prot
VDAC 1 protein, densitometry [5]: 1.03 ± 0.22
VDAC 2 protein, densitometry [6]: 1.02 ± 0.20
Cyclophilin D protein, densitometry [7]: 1.01 ± 0.10

CC/C=C\C/C=C\C/C=C\C/C=C\C/C=C\CCCC(=O)O [EPA, eicosapentanoic acid]
plasma free fatty acid concentration compared to CTRL [8]: lowered
plasma triglyceride concentration compared to CTRL [8]: lowered
Mitochondrial phospholipid C18:0 [1]: 19.8 ± 0.8 molar percent of total phospholipid fatty acid
Mitochondrial phospholipid C18:1n7 [1]: 4.2 ± 0.2 molar percent of total phospholipid fatty acid
Mitochondrial phospholipid C18:1n9 [1]: 11.8 ± 1.0 molar percent of total phospholipid fatty acid
Mitochondrial phospholipid C18:2n6 [1]: 22.4 ± 0.8 molar percent of total phospholipid fatty acid
Mitochondrial phospholipid Total ω-3 PUFA [1]: 14.3 ± 0.3 molar percent of total phospholipid fatty acid
Mitochondrial phospholipid C16:0 [1]: 10.8 ± 0.6 molar percent of total phospholipid fatty acid
Mitochondrial phospholipid C16:1 ([1]; BQL = below the quantifiable limit (limit of detection = 0.41%)): 4.5 ± 1.8 molar percent of total phospholipid fatty acid
Mitochondrial phospholipid C20:3n6 [1]: 1.1 ± 0.2 molar percent of total phospholipid fatty acid
Mitochondrial phospholipid C22:6n3 [1]: 8.3 ± 0.2 molar percent of total phospholipid fatty acid
Mitochondrial phospholipid C20:5n3 [1]: 6.0 ± 0.2 molar percent of total phospholipid fatty acid
Mitochondrial phospholipid C20:4n6 [1]: 9.8 ± 0.8 molar percent of total phospholipid fatty acid
total CL content [2]: 11.1±0.8 nmols/mg mito prot
CL species containing one ARA and three linoleic acid moieties (ARA1L3CL) ([2]; Series 1, compared to CTRL, FIG. 9): decrease
State 4 (+ oligomycin) respiration ([3]; Glutamate + Malate): 19.1 ± 3.3 ng atoms O · mg^−1 · min^−1
State 4 (− oligomycin) respiration ([3]; Glutamate + Malate): 32.1 ± 4.8 ng atoms O · mg^−1 · min^−1
State 3 respiration ([3]; Glutamate + Malate, mean ± SEM): 119.3 ± 13.4 ng atoms O · mg^−1 · min^−1
P:O ([3]; Glutamate + Malate): 2.76 ± 0.23
RCR ([3]; Glutamate + Malate): 7.0 ± 1.0
State 3 respiration ([3]; Palmityl-carnitine + Malate): 243.7 ± 28.1 ng atoms O · mg^−1 · min^−1
State 4 (+ oligomycin) respiration ([3]; Palmityl-carnitine + Malate): 29.7 ± 3.8 ng atoms O · mg^−1 · min^−1
State 4 (− oligomycin) respiration ([3]; Palmityl-carnitine + Malate): 59.4 ± 7.0 ng atoms O · mg^−1 · min^−1
P:O ([3]; Palmityl-carnitine + Malate): 2.57 ± 0.14
RCR ([3]; Palmityl-carnitine + Malate): 9.5 ± 1.8
State 3 respiration ([3]; Pyruvate + Malate): 221.2 ± 31.0 ng atoms O · mg^−1 · min^−1
State 4 (+ oligomycin) respiration ([3]; Pyruvate + Malate): 43.3 ± 5.2 ng atoms O · mg^−1 · min^−1
State 4 (− oligomycin) respiration ([3]; Pyruvate + Malate): 63.5 ± 6.4 ng atoms O · mg^−1 · min^−1
P:O ([3]; Pyruvate + Malate): 2.44 ± 0.30
RCR ([3]; Pyruvate + Malate): 5.1 ± 0.3
State 3 respiration ([3]; Succinate + Rotenone): 307.2 ± 37.1 ng atoms O · mg^−1 · min^−1
State 4 (+ oligomycin) respiration ([3]; Succinate + Rotenone): 80.3 ± 11.7 ng atoms O · mg^−1 · min^−1
State 4 (− oligomycin) respiration ([3]; Succinate + Rotenone): 102.1 ± 11.5 ng atoms O · mg^−1 · min^−1
P:O ([3]; Succinate + Rotenone): 1.48 ± 0.08
RCR ([3]; Succinate + Rotenone): 4.1 ± 0.5
decrease of state 4 respiration [3]: no effect
increase of RCR [3]: no effect
Ca2+ required to elicit MPTP [4, 10]: 80.8±4.9 nmol Ca^2+/mg mito prot
Ca2+ required to elicit MPTP [4, 11]: 130.6±12.8 nmol Ca^2+/mg mito prot
VDAC 1 protein, densitometry [5]: 0.87 ± 0.16
VDAC 2 protein, densitometry [6]: 0.94 ± 0.17
Cyclophilin D protein, densitometry [7]: 1.00 ± 0.08

ETANERCEPT
efficacy in HF patients [9]: not effective
